According to PubChem BioAssay AID330 (DTP/NCI, 2004):
Several values for one entry are separate records, joined by “and”; a condition that tells them apart may be missing. Equal values may be shown once. Toxic doses and inconclusive results are not listed. How the source made its calls: active means survival T/C of 150% or more; inactive means T/C below 125% in these data.

Test system: P388 leukemia ip, CD2F1 mice, survival T/C
Assay: NCI In Vivo Anticancer Drug Screen. Data for tumor model P388 Leukemia (intraperitoneal) in CD2F1 (CDF1) mice
Details: endpoint: median survival time, higher = longer survival
Outline: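 Mice carrying the transplanted tumor received test compound or vehicle. Survival was recorded in each group, and the value is the treated-group measurement divided by that of the vehicle-treated control group.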

[1] = dose: 60.0 mg/kg/injection, schedule: Q01DX005 (ip), vehicle: Klucel (hydroxypropylcellulose) (HPC)
[2] = dose: 120.0 mg/kg/injection, schedule: Q01DX005 (ip), vehicle: Klucel (hydroxypropylcellulose) (HPC)
[3] = dose: 240.0 mg/kg/injection, schedule: Q01DX005 (ip), vehicle: Klucel (hydroxypropylcellulose) (HPC)
[4] = dose: 50.0 mg/kg/injection, schedule: Q01DX005 (ip), vehicle: Klucel (hydroxypropylcellulose) (HPC)
[5] = dose: 100.0 mg/kg/injection, schedule: Q01DX005 (ip), vehicle: Klucel (hydroxypropylcellulose) (HPC)
[6] = dose: 200.0 mg/kg/injection, schedule: Q01DX005 (ip), vehicle: Klucel (hydroxypropylcellulose) (HPC)
[7] = dose: 100.0 mg/kg/injection, schedule: Q04DX002 (ip), vehicle: saline with Tween-80
[8] = dose: 200.0 mg/kg/injection, schedule: Q04DX002 (ip), vehicle: saline with Tween-80
[9] = dose: 400.0 mg/kg/injection, schedule: Q04DX002 (ip), vehicle: saline with Tween-80
[10] = dose: 60.0 mg/kg/injection, schedule: Q01DX005 (ip), vehicle: saline with Tween-80
[11] = dose: 120.0 mg/kg/injection, schedule: Q01DX005 (ip), vehicle: saline with Tween-80
[12] = dose: 240.0 mg/kg/injection, schedule: Q01DX005 (ip), vehicle: saline with Tween-80
[13] = dose: 25.0 mg/kg/injection, schedule: Q01DX009 (ip), vehicle: saline with Tween-80
[14] = dose: 50.0 mg/kg/injection, schedule: Q01DX009 (ip), vehicle: saline with Tween-80
[15] = dose: 100.0 mg/kg/injection, schedule: Q01DX009 (ip), vehicle: saline with Tween-80
[16] = dose: 200.0 mg/kg/injection, schedule: Q01DX009 (ip), vehicle: saline with Tween-80

Measured: T/C

COc1ccc(C)cc1NC(=O)SC(C)C
inactive: [1] 89 % of control | [2] 86 % of control | [3] 93 % of control

NC1=C(O)C(=O)C2(O1)C(=O)Nc1ccccc12 (stereo not given)
inactive: [4] 100 % of control | [5] 100 % of control | [6] 106 % of control

Cn1c2ccccc2c2nnc(N/N=C/c3ccc(Cl)cc3)nc21
inactive: [7] 88 % of control | [8] 87 % of control | [9] 98 % of control

CNc1ccc([N+](=O)[O-])cc1/C([O-])=C\[S+](C)(C)=O
inactive: dose: 100.0 mg/kg/injection, schedule: Q04DX003 (ip), vehicle: saline 97 % of control | dose: 200.0 mg/kg/injection, schedule: Q04DX003 (ip), vehicle: saline 106 % of control | dose: 400.0 mg/kg/injection, schedule: Q04DX003 (ip), vehicle: saline 97 % of control

O=Cc1cc(-c2ccccc2)n(-c2ccccc2)c1-c1ccccc1
inactive: [10] 96 % of control | [11] 98 % of control | [12] 97 % of control

NCCCCC(NC(=O)OCC1c2ccccc2-c2ccccc21)C(=O)O (stereo not given)
inactive: [4] 99 % of control | [5] 99 % of control | [6] 109 % of control

CC(=O)Nc1cc(Cl)cc2c1-c1ccc(Cl)cc1C2N(C)C (stereo not given)
inactive: [4] 96 % of control | [5] 100 % of control | [6] 87 % of control

COc1cc(NCC2COc3c(ccc(OC)c3OC)C2=O)c([N+](=O)[O-])cc1OC (stereo not given)
inactive: [1] 90 % of control | [2] 92 % of control | [3] 86 % of control

CN1CCCN(C)C1c1cc(Cl)ccc1O
inactive: dose: 6.25 mg/kg/injection, schedule: Q01DX009 (ip), vehicle: saline sonified 90 % of control | dose: 12.5 mg/kg/injection, schedule: Q01DX009 (ip), vehicle: saline sonified 100 % of control | dose: 25.0 mg/kg/injection, schedule: Q01DX009 (ip), vehicle: saline sonified 90 % of control

CN1N=Nc2ccccc2C1(O)c1ccccc1 (stereo not given)
inactive: dose: 100.0 mg/kg/injection, schedule: Q01DX001 (ip), vehicle: Klucel (hydroxypropylcellulose) (HPC) 98 % of control | dose: 200.0 mg/kg/injection, schedule: Q01DX001 (ip), vehicle: Klucel (hydroxypropylcellulose) (HPC) 98 % of control | dose: 400.0 mg/kg/injection, schedule: Q01DX001 (ip), vehicle: Klucel (hydroxypropylcellulose) (HPC) 102 % of control

CCOP(=O)(O)OCC.[Sc]
inactive: [7] 93 % of control | [8] 101 % of control | [9] 104 % of control

Nc1cc2nc3ccccc3c(=O)n2[nH]1
inactive: [4] 98 % of control | [5] 91 % of control | [6] 86 % of control

O=C(OCC1OC(O)(COC(=O)c2ccccc2)C(OC(=O)c2ccccc2)C1OC(=O)c1ccccc1)c1ccccc1 (stereo not given)
inactive: dose: 12.5 mg/kg/injection, schedule: Q01DX005 (ip), vehicle: Klucel (hydroxypropylcellulose) (HPC) 97 % of control | dose: 25.0 mg/kg/injection, schedule: Q01DX005 (ip), vehicle: Klucel (hydroxypropylcellulose) (HPC) 98 % of control | [4] 90 % of control and 92 % of control

O=C(c1ccc2c(c1)C(=O)NC2=O)c1ccc2c(c1)C(=O)NC2=O
inactive: [13] 96 % of control | [14] 89 % of control | [15] 86 % of control

CCCCCc1ccccc1
inactive: [15] 106 % of control | [16] 109 % of control

Cn1c2c([N+](=O)[O-])cccc2c(=O)c2c(O)cc3c(c21)C=CC(C)(C)O3
inactive: dose: 100.0 mg/kg/injection, schedule: Q01DX001 (ip), vehicle: saline with Tween-80 108 % of control | dose: 200.0 mg/kg/injection, schedule: Q01DX001 (ip), vehicle: saline with Tween-80 110 % of control

CN1C(=O)C/C(=C\N2CCCCC2)C1=O
inactive: dose: 50.0 mg/kg/injection, schedule: Q01DX005 (ip), vehicle: saline with Tween-80 98 % of control | dose: 100.0 mg/kg/injection, schedule: Q01DX005 (ip), vehicle: saline with Tween-80 102 % of control

c1onc2cc3c(cc12)OCO3
inactive: dose: 0.39 mg/kg/injection, schedule: Q01DX009 (ip), vehicle: Klucel (hydroxypropylcellulose) (HPC) 86 % of control and 88 % of control | dose: 0.78 mg/kg/injection, schedule: Q01DX009 (ip), vehicle: Klucel (hydroxypropylcellulose) (HPC) 89 % of control and 95 % of control | dose: 1.56 mg/kg/injection, schedule: Q01DX009 (ip), vehicle: Klucel (hydroxypropylcellulose) (HPC) 124 % of control and 89 % of control and 93 % of control | dose: 3.13 mg/kg/injection, schedule: Q01DX009 (ip), vehicle: Klucel (hydroxypropylcellulose) (HPC) 99 % of control and 92 % of control | dose: 12.5 mg/kg/injection, schedule: Q01DX009 (ip), vehicle: Klucel (hydroxypropylcellulose) (HPC) 89 % of control | dose: 25.0 mg/kg/injection, schedule: Q01DX009 (ip), vehicle: Klucel (hydroxypropylcellulose) (HPC) 93 % of control

[NH2-].[NH2-].[NH2-].[NH2-].[NH2-].[NH2-].[Ni]
inactive: dose: 6.25 mg/kg/injection, schedule: Q01DX001 (ip), vehicle: saline 97 % of control | dose: 12.5 mg/kg/injection, schedule: Q01DX001 (ip), vehicle: saline 100 % of control | dose: 25.0 mg/kg/injection, schedule: Q01DX001 (ip), vehicle: saline 98 % of control

ClC(Cl)(Cl)C1OCCO1
inactive: [14] 95 % of control | [15] 104 % of control | dose: 100.0 mg/kg/injection, schedule: Q04DX003 (ip), vehicle: saline with Tween-80 100 % of control | [16] 90 % of control | dose: 200.0 mg/kg/injection, schedule: Q04DX003 (ip), vehicle: saline with Tween-80 90 % of control | dose: 400.0 mg/kg/injection, schedule: Q04DX003 (ip), vehicle: saline with Tween-80 95 % of control

CCOC(=O)Nn1c(C)c(C(N)=O)c(C(=O)OC)c1C
inactive: [10] 100 % of control | [11] 96 % of control | [12] 103 % of control

C=CC(C)(C)N1C(=O)C(C(C)=O)=C(O)C1Cc1c[nH]c2ccccc12 (stereo not given)
inactive: dose: 8.75 mg/kg/injection, schedule: Q01DX005 (ip), vehicle: Klucel (hydroxypropylcellulose) (HPC) 99 % of control | dose: 17.5 mg/kg/injection, schedule: Q01DX005 (ip), vehicle: Klucel (hydroxypropylcellulose) (HPC) 99 % of control | dose: 35.0 mg/kg/injection, schedule: Q01DX005 (ip), vehicle: Klucel (hydroxypropylcellulose) (HPC) 97 % of control

O=C1CCCC2C3CC(CN12)C1CCCCN1C3 (stereo not given)
inactive: [13] 100 % of control | [14] 120 % of control | [15] 105 % of control

CC(=O)N=c1nc(N)nc2n(O)cc(-c3ccccc3)nc1-2
inactive: dose: 31.25 mg/kg/injection, schedule: Q01DX009 (ip), vehicle: saline with Tween-80 113 % of control | dose: 62.5 mg/kg/injection, schedule: Q01DX009 (ip), vehicle: saline with Tween-80 99 % of control | dose: 125.0 mg/kg/injection, schedule: Q01DX009 (ip), vehicle: saline with Tween-80 97 % of control

CCCCNC1Cc2ccccc2CC1O (stereo not given)
inactive: dose: 0.79 mg/kg/injection, schedule: Q01DX005 (ip), vehicle: saline 100 % of control and 107 % of control | dose: 1.56 mg/kg/injection, schedule: Q01DX005 (ip), vehicle: saline 100 % of control and 104 % of control | dose: 3.12 mg/kg/injection, schedule: Q01DX005 (ip), vehicle: saline 101 % of control and 105 % of control and 115 % of control | dose: 6.25 mg/kg/injection, schedule: Q01DX005 (ip), vehicle: saline 100 % of control and 108 % of control and 121 % of control | dose: 12.5 mg/kg/injection, schedule: Q01DX005 (ip), vehicle: saline 104 % of control
